Results on 68 molecules are retold here after doi:10.1101/2021.10.07.463234v2 (biorxiv, 2021).

The structures appear in SMILES notation. Structures can show the parent of a compound that is named as a salt.

The first assay has as its target SARS-CoV-2 Mac1 (Severe acute respiratory syndrome coronavirus 2, UniProt P0DTD1). The assay is described as follows: biochemical. The following applies: 100 µM; inhibitor.
With `CN1c2ccccc2C(NCCCCCCC(=O)O)c2ccc(Cl)cc2S1(=O)=O` (centres unmarked) [Tianeptine sodium], the “%inhibition” value was 0%. Same read-out and setting: for `CN1c2ccccc2C(NCCCCCCC(=O)O)c2ccc(Cl)cc2S1(=O)=O` (centres unmarked) [Tianeptine] the value was 12.39%. Same read-out and setting: for `O=c1sn(-c2cccc3ccccc23)c(=O)n1Cc1ccccc1` [Tideglusib] the value was 42.74%.

For the molecule `CC[C@H]1OC(=O)C[C@@H](O)[C@H](C)[C@@H](O[C@@H]2O[C@H](C)[C@@H](O)[C@H](N(C)C)[C@H]2O)[C@@H](CCN2C[C@H](C)C[C@H](C)C2)C[C@@H](C)C(=O)/C=C/C(C)=C/[C@@H]1CO[C@@H]1O[C@H](C)[C@@H](O)[C@@H](OC)[C@H]1OC` [Tilmicosin phosphate], the “%inhibition” value stood at 0%.

`CC[C@H]1OC(=O)C[C@@H](O)[C@H](C)[C@@H](O[C@@H]2O[C@H](C)[C@@H](O)[C@H](N(C)C)[C@H]2O)[C@@H](CCN2C[C@H](C)C[C@H](C)C2)C[C@@H](C)C(=O)/C=C/C(C)=C/[C@@H]1CO[C@@H]1O[C@H](C)[C@@H](O)[C@@H](OC)[C@H]1OC` [Tilmicosin]: the “%inhibition” value amounted to 23.11%. As for `NC[C@H]1O[C@H](O[C@H]2[C@H](O)[C@@H](O[C@H]3O[C@H](CO)[C@@H](O)[C@H](N)[C@H]3O)[C@H](N)C[C@@H]2N)[C@H](N)C[C@@H]1O` [Tobramycin sulfate], the “%inhibition” value turned out to be 7.872%. On the same count and under the same terms, for `NC[C@H]1O[C@H](O[C@H]2[C@H](O)[C@@H](O[C@H]3O[C@H](CO)[C@@H](O)[C@H](N)[C@H]3O)[C@H](N)C[C@@H]2N)[C@H](N)C[C@@H]1O` [Tobramycin] the value was 0%. Same read-out and setting: for `Cc1ccc(C(=O)c2ccc(CC(=O)O)n2C)cc1` [Tolmetin Sodium] the value was 0.1982%; for `Cc1ccc(C(=O)c2ccc(CC(=O)O)n2C)cc1` [Tolmetin], 4.72%. On the same count and under the same terms, for `Cn1c(=O)cc(N2CCC[C@@H](N)C2)n(Cc2cc(F)ccc2C#N)c1=O` [Trelagliptin succinate] the value was 24.59%.

On to `Cn1c(=O)cc(N2CCC[C@@H](N)C2)n(Cc2cc(F)ccc2C#N)c1=O` [Trelagliptin], for which the “%inhibition” value came out at 0%.

Still in this assay, the particulars now being: read-out: %inhibition.
`Cc1ccsc1C(=CCCN1CCC[C@@H](C(=O)O)C1)c1sccc1C` [Tiagabine]: the inhibition at 100 µM was determined as 9.64%. The same measure, in the same setting: to `CC(C(=O)O)c1ccc(C(=O)c2ccccc2)s1` (centres unmarked) [Tiaprofenic acid] belongs 26.3%; to `CCCSc1nc(N[C@@H]2C[C@H]2c2ccc(F)c(F)c2)c2nnn([C@@H]3C[C@H](OCCO)[C@@H](O)[C@H]3O)c2n1` [Ticagrelor], 6.12%; to `CC1(C)S[C@@H]2[C@H](NC(=O)[C@H](C(=O)O)c3ccsc3)C(=O)N2[C@H]1C(=O)O` [Ticarcillin sodium], 7.19%. Still for that read-out and setting: to `Clc1ccccc1CN1CCc2sccc2C1` [Ticlopidine HCl] belongs 0.00536%; to `CN(C)c1cc(NC(=O)CNC(C)(C)C)c(O)c2c1C[C@H]1C[C@H]3[C@H](N(C)C)C(O)=C(C(N)=O)C(=O)[C@@]3(O)C(O)=C1C2=O` [Tigecycline], 0%. Same read-out and setting: to `CCNC1(c2cccs2)CCCCC1=O` (centres unmarked) [Tiletamine Hydrochloride] belongs 0%; to `CC(C)(C)NC[C@H](O)COc1nsnc1N1CCOCC1` [Timolol Maleate], 11.9%; to `CCS(=O)(=O)CCn1c([N+](=O)[O-])cnc1C` [Tinidazole], 0%.

Turning to `Clc1ccc(C(Cn2ccnc2)OCc2ccsc2Cl)c(Cl)c1` (centres unmarked) [Tioconazole], the inhibition at 100 µM worked out at 7.13%. As to `CC(S)C(=O)NCC(=O)O` (centres unmarked) [Tiopronin], the inhibition at 100 µM was 0%. Same read-out and setting: to `C[N+]1(C)[C@@H]2C[C@@H](OC(=O)C(O)(c3cccs3)c3cccs3)C[C@H]1[C@@H]1O[C@@H]12` [Tiotropium Bromide hydrate] belongs 19.5%; to `O=c1oc2cc(O)ccc2s1` [Tioxolone], 23.8%.

In the case of `N=C1CCCN1Cc1[nH]c(=O)[nH]c(=O)c1Cl` [Tipiracil hydrochloride], the inhibition at 100 µM was 0%. The same measure, in the same setting: to `CCCCS(=O)(=O)N[C@@H](Cc1ccc(OCCCCC2CCNCC2)cc1)C(=O)O` [Tirofiban Hydrochloride] belongs 9.42%; to `O=C1NC(=O)[C@@H](c2cn3c4c(cccc24)CCC3)[C@@H]1c1c[nH]c2ccccc12` [Tivantinib (ARQ 197)], 1.02%.

As to `COc1cc2nccc(Oc3ccc(NC(=O)Nc4cc(C)on4)c(Cl)c3)c2cc1OC` [Tivozanib (AV-951)], the inhibition at 100 µM came to 9.18%. The same measure, in the same setting: for `Clc1ccc2nsnc2c1NC1=NCCN1` [Tizanidine HCl] the value was 0%; for `CCc1ccc(Cc2ccc3c(c2)[C@]2(OC3)O[C@H](CO)[C@@H](O)[C@H](O)[C@H]2O)cc1` [Tofogliflozin(CSG 452)], 1.23%.

As for `c1ccc(CC2=NCCN2)cc1` [Tolazoline HCl], the inhibition at 100 µM came out at 7.01%. Still for that read-out and setting: for `CCCCNC(=O)NS(=O)(=O)c1ccc(C)cc1` [Tolbutamide] the value was 0%; for `Cc1ccc(C(=O)c2cc(O)c(O)c([N+](=O)[O-])c2)cc1` [Tolcapone], 0%.

For `Cc1c(Cl)cccc1Nc1ccccc1C(=O)O` [Tolfenamic Acid], the inhibition at 100 µM is 16.4%. Turning to `Cc1cccc(N(C)C(=S)Oc2ccc3ccccc3c2)c1` [Tolnaftate], the inhibition at 100 µM stood at 0%. For `Cc1ccc(C(=O)C(C)CN2CCCCC2)cc1` (centres unmarked) [Tolperisone HCl], the inhibition at 100 µM is 8.81%. Same read-out and setting: to `Cc1ccc(O)c([C@H](CCN(C(C)C)C(C)C)c2ccccc2)c1` [Tolterodine tartrate] belongs 34.1%.

With `Cc1cc(-n2c(=O)[nH]c(=O)n(C)c2=O)ccc1Oc1ccc(SC(F)(F)F)cc1` [Toltrazuril], the inhibition at 100 µM was determined as 0%.

For `Cc1ccccc1C(=O)Nc1ccc(C(=O)N2CCCC(O)c3cc(Cl)ccc32)c(C)c1` (centres unmarked) [Tolvaptan], the inhibition at 100 µM came to 10.6%. `CC1(C)O[C@@H]2[C@@H](CO[C@@]3(COS(N)(=O)=O)OC(C)(C)O[C@@H]23)O1` [Topiramate]: the inhibition at 100 µM was 0%. Same read-out and setting: to `N#Cc1cc(-c2n[nH]c(-c3ccncc3)n2)ccn1` [Topiroxostat] belongs 0%; to `CC[C@@]1(O)C(=O)OCc2c1cc1n(c2=O)Cc2cc3c(CN(C)C)c(O)ccc3nc2-1` [Topotecan HCl], 24.2%; to `CN(C)CCOc1ccc(/C(=C(/CCCl)c2ccccc2)c2ccccc2)cc1` [Toremifene Citrate], 21.7%. Still for that read-out and setting: for `Cc1cccc(Nc2ccncc2S(=O)(=O)NC(=O)NC(C)C)c1` [Torsemide] the value was 15.1%; for `Cc1cc(Nc2cc(N3CCN(C)CC3)nc(Sc3ccc(NC(=O)C4CC4)cc3)n2)n[nH]1` [Tozasertib (VX-680, MK-0457)], 33.2%. Still for that read-out and setting: to `CC(=O)Nc1cccc(-n2c(=O)n(C3CC3)c(=O)c3c(Nc4ccc(I)cc4F)n(C)c(=O)c(C)c32)c1` [Trametinib (GSK1120212)] belongs 3.49%. Turning to `COc1ccc(/C=C/C(=O)Nc2ccccc2C(=O)O)cc1OC` [Tranilast], the inhibition at 100 µM was found to be 0%. Same read-out and setting: for `N[C@H]1C[C@@H]1c1ccccc1` [Tranylcypromine (2-PCPA) HCl] the value was 0%; for `CC(C)OC(=O)CCC/C=C\C[C@@H]1[C@@H](/C=C/[C@@H](O)COc2cccc(C(F)(F)F)c2)[C@H](O)C[C@@H]1O` [Travoprost], 0%. On the same count and under the same terms, for `CC1=C(/C=C/C(C)=C/C=C/C(C)=C/C(=O)O)C(C)(C)CCC1` [Tretinoin] the value was 0%. On the same count and under the same terms, to `CC(=O)OCC(COC(C)=O)OC(C)=O` [Triacetin] belongs 3.58%. Turning to `CC1(C)O[C@@H]2C[C@H]3[C@@H]4CCC5=CC(=O)C=C[C@]5(C)[C@@]4(F)[C@@H](O)C[C@]3(C)[C@]2(C(=O)CO)O1` [Triamcinolone Acetonide], the inhibition at 100 µM came out at 0%. The same measure, in the same setting: to `C[C@]12C=CC(=O)C=C1CC[C@H]1[C@@H]3C[C@@H](O)[C@](O)(C(=O)CO)[C@@]3(C)C[C@H](O)[C@@]12F` [Triamcinolone] belongs 16.5%. On the same count and under the same terms, to `Nc1nc(N)c2nc(-c3ccccc3)c(N)nc2n1` [Triamterene] belongs 4.22%. For `COc1cc(C(=O)NCc2ccc(OCCN(C)C)cc2)cc(OC)c1OC` [Tribenzagan Hydrochloride], the inhibition at 100 µM was 0%. Still for that read-out and setting: for `NS(=O)(=O)c1cc2c(cc1Cl)NC(C(Cl)Cl)NS2(=O)=O` (centres unmarked) [Trichlormethiazide] the value was 0%; for `CSc1nc2cc(Cl)c(Oc3cccc(Cl)c3Cl)cc2[nH]1` [Triclabendazole], 20.5%. On the same count and under the same terms, to `Oc1cc(Cl)ccc1Oc1ccc(Cl)cc1Cl` [Triclosan] belongs 0%.

As for `CN1CCN(CCCN2c3ccccc3Sc3ccc(C(F)(F)F)cc32)CC1` [Trifluoperazine 2HCl], the inhibition at 100 µM came to 0%. With `O=c1[nH]c(=O)n([C@H]2C[C@H](O)[C@@H](CO)O2)cc1C(F)(F)F` [Trifluridine], the inhibition at 100 µM turned out to be 0%.

For the molecule `CC(=O)Oc1cc(C(F)(F)F)ccc1C(=O)O` [Triflusal], the inhibition at 100 µM was determined as 5.82%. Still for that read-out and setting: to `OC(CCN1CCCCC1)(c1ccccc1)C1CCCCC1` (centres unmarked) [Trihexyphenidyl hydrochloride] belongs 2.89%; to `C[C@]12CC[C@H]3[C@@H](CC[C@@]45O[C@@H]4C(O)=C(C#N)C[C@]35C)[C@@H]1CC[C@@H]2O` [Trilostane], 0%; to `CCC(COC(=O)c1cc(OC)c(OC)c(OC)c1)(c1ccccc1)N(C)C` (centres unmarked) [Trimebutine maleate], 0%. On to `COc1ccc(CN2CCNCC2)c(OC)c1OC` [Trimetazidine dihydrochloride], for which the inhibition at 100 µM came to 0%.

As to `CN1C(=O)OC(C)(C)C1=O` [Trimethadione], the inhibition at 100 µM came out at 0%. The same measure, in the same setting: for `COc1cc(Cc2cnc(N)nc2N)cc(OC)c1OC` [Trimethoprim] the value was 4.05%.

With `CC(CN(C)C)CN1c2ccccc2CCc2ccccc21` (centres unmarked) [Trimipramine Maleate], the inhibition at 100 µM came out at 0%.
